Source: PubChem BioAssay (NCI)
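Protocol summary: plate cells (96-well), add compound at 5 concentrations, incubate 48 h, interpolate endpoints linearly. At the GI50, growth is halved. TGI: total growth inhibition.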

What was measured:
Assay in all cases: NCI tumour cell line growth inhibition, 48 h
CAKI-1 renal = tested on: CAKI-1 renal
UACC-62 melanoma = tested on: UACC-62 melanoma
A498 renal = tested on: A498 renal
COLO 205 colon = tested on: COLO 205 colon
HS 578T breast = tested on: HS 578T breast
SN12C renal = tested on: SN12C renal
NCI-H23 lung = tested on: NCI-H23 lung
RXF 393 renal = tested on: RXF 393 renal
NCI-H522 lung = tested on: NCI-H522 lung
MALME-3M melanoma = tested on: MALME-3M melanoma

| SMILES | GI50 (CAKI-1 renal) [µM] | TGI (CAKI-1 renal) [µM] | GI50 (UACC-62 melanoma) [µM] | TGI (UACC-62 melanoma) [µM] | GI50 (A498 renal) [µM] | TGI (A498 renal) [µM] | GI50 (COLO 205 colon) [µM] | TGI (COLO 205 colon) [µM] | GI50 (HS 578T breast) [µM] | TGI (HS 578T breast) [µM] | GI50 (SN12C renal) [µM] | TGI (SN12C renal) [µM] | GI50 (NCI-H23 lung) [µM] | TGI (NCI-H23 lung) [µM] | GI50 (RXF 393 renal) [µM] | TGI (RXF 393 renal) [µM] | GI50 (NCI-H522 lung) [µM] | TGI (NCI-H522 lung) [µM] | TGI (MALME-3M melanoma) [µM] | GI50 (MALME-3M melanoma) [µM] |
| --- | --- | --- | --- | --- | --- | --- | --- | --- | --- | --- | --- | --- | --- | --- | --- | --- | --- | --- | --- | --- |
| CCCCCO/N=C\c1c2c(O)c3c(O)c(C)c4c(c3c1O)C(=O)C(C)(O/C=C\C(OC)C(C)C(OC(C)=O)C(C)C(O)C(C)C(O)C(C)/C=C\C=C(\C)C(=O)N2)O4 (centres undefined) | 1.91 | 4.5 | 1.39 | 2.71 | 1.64 | 3.16 | 1.52 | 2.85 | 1.69 | 4.2 | 1.63 | 3.35 | 1.74 | 3.44 | 1.71 | 3.1 |  |  |  |  |
| COc1ccc(-c2nc(/C=C3\SC(=NCc4ccccc4)NC3=O)c3ccccn23)cc1 | 1.76 | 3.55 | 1.55 | 3.8 | 1.51 | 6.56 | 2.75 | 7.66 | 1.37 | 4.32 | 1.68 | 4.63 | 1.37 | 3.51 | 1.18 | 2.97 | 0.79 | 7.16 |  |  |
| CCCCCCCCCCCCC(Br)C(=O)NCC(N)=O (centres undefined) |  |  |  | 22.7 |  | 26.7 |  | 39.2 |  |  |  |  |  | 14.7 |  | 8.52 |  | 5.22 | 28 |  |
| CC(C)=CC(=O)N(C)C1C2CN3CCC(O2)C13 (centres undefined) |  | > 100 |  | > 100 |  | > 100 |  | > 100 |  |  |  | > 100 |  | > 100 |  | > 100 |  | > 100 | > 100 |  |
| COc1ccc(-c2cc(C(=O)Nc3ccc(C)c(C)c3)nc(NC#N)n2)cc1 |  | > 100 |  | > 100 |  | > 100 |  | > 100 |  |  |  | > 100 |  | > 100 |  | > 100 |  | > 100 | > 100 |  |
| COCCNC(=O)C1C(=O)C(=O)N(CCOC)C1=O (centres undefined) |  | > 100 |  | > 100 |  | > 100 |  | > 100 |  |  |  | > 100 |  | > 100 |  | > 100 |  | > 100 | > 100 |  |
| CN(CCNCc1ccccn1)CCNCc1ccccn1 |  |  | 2.18 | 4.74 | 1.8 | 3.27 | 2.53 | 6.02 |  |  | 4.33 | 17.2 | 3.55 | > 100 | 1.94 | 3.81 |  |  | 3.94 | 1.46 |
| O=C(O)/C=C/c1nc2ccccc2c(=O)o1 |  |  |  | > 100 |  |  |  | > 100 |  |  |  | > 100 |  | > 100 |  |  |  | > 100 |  |  |
| CCc1cccc(C)c1NC(=O)c1sc2nc3c(cc2c1N)C(=O)CCC3 | 0.537 | > 100 | 0.556 | > 100 | 0.2 | 0.759 | 0.35 | 1.51 | 2.57 | > 100 | 0.909 | > 100 | 0.732 | > 100 |  |  | 0.234 | 3.82 | 98.8 | 0.685 |
| Cc1cc(C)nc(NS(=O)(=O)c2ccc(Nc3c4ccccc4nc4c(C(=O)Nc5ccc(S(=O)(=O)N=C(N)N)cc5)cccc34)cc2)n1 |  | > 100 |  | > 100 |  | > 100 |  | > 100 |  |  |  | > 100 |  | > 100 |  | 85.1 |  | > 100 | > 100 |  |
